# Experimental data from article doi:10.1101/2025.10.31.685773v1 (biorxiv, 2025).
# Key:
# [1] = test system: CCCC(=O)SCCNC(=O)CCNC(=O)[C@H](O)C(C)(C)COP(=O)(O)OP(=O)(O)OC[C@H]1O[C@@H](n2cnc3c(N)ncnc32)[C@H](O)[C@@H]1OP(=O)(O)O; assay: purified protein; conditions: 100 mM acetate as co-substrate, pH 7.5, no NAD+
# ADLP = biological target: T1, ADLP (Thermus thermophilus, UniProt Q72IQ0); assay: isothermal titration calorimetry; type: binding
# T1 sequence (Q72IQ0 1-345): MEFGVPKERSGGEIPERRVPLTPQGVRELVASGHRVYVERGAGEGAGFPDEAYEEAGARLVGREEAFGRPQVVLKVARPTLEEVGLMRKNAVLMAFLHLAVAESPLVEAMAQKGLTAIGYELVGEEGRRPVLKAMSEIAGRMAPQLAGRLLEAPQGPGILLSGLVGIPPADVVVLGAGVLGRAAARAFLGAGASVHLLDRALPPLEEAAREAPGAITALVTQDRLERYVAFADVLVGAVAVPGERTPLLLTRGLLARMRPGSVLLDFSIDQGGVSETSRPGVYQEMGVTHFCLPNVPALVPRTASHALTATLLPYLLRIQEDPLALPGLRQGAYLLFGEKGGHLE
# [2] = biological target: TtCoAT·ADLP complex (NAD(H) site in ADLP) (Thermus thermophilus, UniProt Q72IQ0); assay: isothermal titration calorimetry; type: binding
Kd (ADLP) [nM],Kd [2] [nM],Molecule,Km [1] [µM]
,,TtCoAT·ADLP (CoA transferase site) (Thermus thermophilus HB27),33.1 ± 2.8
9100,3100 ± 330,NC(=O)c1ccc[n+]([C@@H]2O[C@H](COP(=O)(O)OP(=O)(O)OC[C@H]3O[C@@H](n4cnc5c(N)ncnc54)[C@H](O)[C@@H]3O)[C@@H](O)[C@H]2O)c1 [NAD^+],
220,340 ± 51,NC(=O)C1=CN([C@@H]2O[C@H](COP(=O)(O)OP(=O)(O)OC[C@H]3O[C@@H](n4cnc5c(N)ncnc54)[C@H](O)[C@@H]3O)[C@@H](O)[C@H]2O)C=CC1 [NADH],
